Test system: NCI-H1341 complex spheroids, percent test/control
Experiment: Anticancer human tumor NCI-H1341 cell line growth inhibition [AhR];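 further: spheroids exposed to agents for seven days before readout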
Details: for IC50: curve of first compound; for viability, T/C: stronger effect = lower value; active means viability on the fitted dose curve at most 10% of control; inactive means the rest
Outline: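 Agents were dosed in half-log steps down from roughly clinical Cmax, or from 10 microM where Cmax was unknown, alone and with AhR antagonists. Read-out: percent test/control growth of tumor spheroids containing HUVEC and MSC stromal cells.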

[1] = second compound 0.1 µM, first compound 0.00949 µM
[2] = second compound 0.1 µM, first compound 0.03 µM
[3] = second compound 0.1 µM, first compound 0.0949 µM
[4] = second compound 0.1 µM, first compound 0.3 µM
[5] = second compound 0.316 µM, first compound 0.00949 µM
[6] = second compound 0.316 µM, first compound 0.03 µM
[7] = second compound 0.316 µM, first compound 0.0949 µM
[8] = second compound 0.316 µM, first compound 0.3 µM
[9] = second compound 1 µM, first compound 0.00949 µM
[10] = second compound 1 µM, first compound 0.03 µM
[11] = second compound 1 µM, first compound 0.0949 µM
[12] = second compound 1 µM, first compound 0.3 µM
[13] = second compound 3.16 µM, first compound 0.00949 µM
[14] = second compound 3.16 µM, first compound 0.03 µM
[15] = second compound 3.16 µM, first compound 0.0949 µM
[16] = second compound 3.16 µM, first compound 0.3 µM
[17] = second compound 10 µM, first compound 0.00949 µM
[18] = second compound 10 µM, first compound 0.03 µM
[19] = second compound 10 µM, first compound 0.0949 µM
[20] = second compound 10 µM, first compound 0.3 µM

COc1ccc([C@@H](O)c2cc(-c3ncnc4cc(N5CCOCC5)ccc34)c(F)cc2Cl)nn1 + Cc1cncc(-c2nc(NCCc3c[nH]c4ccccc34)c3ncn(C(C)C)c3n2)c1
inactive: viability, T/C (second compound 0.1 µM, first compound 0.0316 µM) 83.7% | viability, T/C (second compound 0.1 µM, first compound 0.1 µM) 75.9% | viability, T/C (second compound 0.1 µM, first compound 0.316 µM) 75.9% | viability, T/C (second compound 0.1 µM, first compound 1 µM) 49.9% | viability, T/C (second compound 0.1 µM, first compound 3.16 µM) 24.6% | viability, T/C (second compound 0.316 µM, first compound 0.0316 µM) 76.3% | viability, T/C (second compound 0.316 µM, first compound 0.1 µM) 69.3% | viability, T/C (second compound 0.316 µM, first compound 0.316 µM) 59.9% | viability, T/C (second compound 0.316 µM, first compound 1 µM) 42.6% | viability, T/C (second compound 0.316 µM, first compound 3.16 µM) 20.3% | viability, T/C (second compound 1 µM, first compound 0.0316 µM) 68% | viability, T/C (second compound 1 µM, first compound 0.1 µM) 62.3% | viability, T/C (second compound 1 µM, first compound 0.316 µM) 61.8% | viability, T/C (second compound 1 µM, first compound 1 µM) 44.6% | viability, T/C (second compound 1 µM, first compound 3.16 µM) 17.4% | viability, T/C (second compound 3.16 µM, first compound 0.0316 µM) 71.8% | viability, T/C (second compound 3.16 µM, first compound 0.1 µM) 67.6% | viability, T/C (second compound 3.16 µM, first compound 0.316 µM) 46% | viability, T/C (second compound 3.16 µM, first compound 1 µM) 42.1% | viability, T/C (second compound 3.16 µM, first compound 3.16 µM) 16.2% | viability, T/C (second compound 10 µM, first compound 0.0316 µM) 18.4% | viability, T/C (second compound 10 µM, first compound 0.1 µM) 16.3% | viability, T/C (second compound 10 µM, first compound 0.316 µM) 13.7%
< 31.6 nM: IC50 (second compound 10 µM)
365 nM: IC50 (second compound 3.16 µM)
1080 nM: IC50 (second compound 0.1 µM)
active: viability, T/C (second compound 0.1 µM, first compound 10 µM) 5.31% | viability, T/C (second compound 0.316 µM, first compound 10 µM) 5.39% | viability, T/C (second compound 1 µM, first compound 10 µM) 5.3% | viability, T/C (second compound 3.16 µM, first compound 10 µM) 4.69% | viability, T/C (second compound 10 µM, first compound 1 µM) 7.45% | viability, T/C (second compound 10 µM, first compound 3.16 µM) 5.7% | viability, T/C (second compound 10 µM, first compound 10 µM) 3.93%
592 nM: IC50 (second compound 0.316 µM)
687 nM: IC50 (second compound 1 µM)

Nc1ncn(C2CC(O)C(CO)S2)c(=O)n1 (stereo not given) + Cc1cncc(-c2nc(NCCc3c[nH]c4ccccc34)c3ncn(C(C)C)c3n2)c1
> 300 nM: IC50 (second compound 0.1 µM) | IC50 (second compound 1 µM) | IC50 (second compound 3.16 µM)
< 0.949 nM: IC50 (second compound 10 µM)
inactive: viability, T/C (second compound 0.1 µM, first compound 0.000949 µM) 102% | viability, T/C (second compound 0.1 µM, first compound 0.003 µM) 82.9% | viability, T/C [1] 91.5% | viability, T/C [2] 88.3% | viability, T/C [3] 67.7% | viability, T/C [4] 50.2% | viability, T/C (second compound 0.316 µM, first compound 0.000949 µM) 84.9% | viability, T/C (second compound 0.316 µM, first compound 0.003 µM) 89.5% | viability, T/C [5] 79.6% | viability, T/C [6] 73.8% | viability, T/C [7] 71.8% | viability, T/C [8] 47.8% | viability, T/C (second compound 1 µM, first compound 0.000949 µM) 69.8% | viability, T/C (second compound 1 µM, first compound 0.003 µM) 87.3% | viability, T/C [9] 80.7% | viability, T/C [10] 77.2% | viability, T/C [11] 67.5% | viability, T/C [12] 58% | viability, T/C (second compound 3.16 µM, first compound 0.000949 µM) 93.7% | viability, T/C (second compound 3.16 µM, first compound 0.003 µM) 97.9% | viability, T/C [13] 86.9% | viability, T/C [14] 84.7% | viability, T/C [15] 82.3% | viability, T/C [16] 63.8% | viability, T/C (second compound 10 µM, first compound 0.000949 µM) 45% | viability, T/C (second compound 10 µM, first compound 0.003 µM) 44.2% | viability, T/C [17] 42.1% | viability, T/C [18] 35.8% | viability, T/C [19] 33.1% | viability, T/C [20] 26%
282 nM: IC50 (second compound 0.316 µM)

O=C(C=Cn1cnc(-c2cc(C(F)(F)F)cc(C(F)(F)F)c2)n1)NNc1cnccn1 + Cc1cncc(-c2nc(NCCc3c[nH]c4ccccc34)c3ncn(C(C)C)c3n2)c1
81.1 nM: IC50 (second compound 1 µM)
< 9.49 nM: IC50 (second compound 10 µM)
56.8 nM: IC50 (second compound 0.316 µM)
44.4 nM: IC50 (second compound 3.16 µM)
98.1 nM: IC50 (second compound 0.1 µM)
inactive: viability, T/C [1] 80.6% | viability, T/C [2] 77% | viability, T/C [3] 51.1% | viability, T/C [4] 14.5% | viability, T/C [5] 66.5% | viability, T/C [6] 65.7% | viability, T/C [7] 38% | viability, T/C [8] 13.4% | viability, T/C [9] 76.8% | viability, T/C [10] 78.5% | viability, T/C [11] 45.1% | viability, T/C [12] 12.7% | viability, T/C [13] 70.2% | viability, T/C [14] 60.4% | viability, T/C [15] 30.8% | viability, T/C [16] 13.6% | viability, T/C [17] 35.3% | viability, T/C [18] 34.8% | viability, T/C [19] 17.4% | viability, T/C [20] 9.23%
active: viability, T/C (second compound 0.1 µM, first compound 0.949 µM) 7.39% | viability, T/C (second compound 0.1 µM, first compound 3 µM) 6.28% | viability, T/C (second compound 0.316 µM, first compound 0.949 µM) 7.92% | viability, T/C (second compound 0.316 µM, first compound 3 µM) 4.63% | viability, T/C (second compound 1 µM, first compound 0.949 µM) 7.39% | viability, T/C (second compound 1 µM, first compound 3 µM) 4.92% | viability, T/C (second compound 3.16 µM, first compound 0.949 µM) 7.86% | viability, T/C (second compound 3.16 µM, first compound 3 µM) 4.46% | viability, T/C (second compound 10 µM, first compound 0.949 µM) 5.77% | viability, T/C (second compound 10 µM, first compound 3 µM) 3.55%
